# Assay results as given in patent US9200016B2, “Substituted 6, 7-dialkoxy-3-isoquinoline derivatives as inhibitors of phosphodiesterase 10 (PDE 10A)” (Allergan, Inc., priority 2013, dated 2015).
# pIC50: −log10 of the molar value. Where a name gives a salt, the structure may show the parent alone.
# Target: PDE10A (Homo sapiens, UniProt Q9Y233)
# Test: Diaxonhit phosphodiesterase assay (TR-FRET, LANCE cAMP kit), PDE10A
# Format: biochemical
# Method: (§1) Diaxonhit Phosphodiesterase Assay (PDE10A and PDE4D3)
# The PDE assay is based on the homogenous time-resolved fluorescence resonance energy transfer (TR-FRET) technology (LANCE® from Perkin Elmer). […] When there is PDE activity, resulting in the degradation of the cyclic nucleotide, the complex is not formed and a decrease in signal is observed.
# The phosphodiesterase assay was developed using the LANCE® cAMP kit (PerkinElmer). The assay buffer contained HBSS with 5 mM HEPES, 0.1% BSA, and 1.5 mM MgCl2, pH 7.4. […] Chemical compounds were dissolved in DMSO (final concentration 2% (v/v)).
# (§2) In a 384-well plate, 2 μL of the inhibitor and 3 μL PDE were added to the well, followed by the addition of 5 μl substrate biotinylated cAMP (1:5). After 60 min incubation at room temperature, 10 μL of assay detection mixture was added to the assay plate. After 1 h at room temperature, the signal was measured on EnVision™ (Perkin Elmer).
# Sequence of PDE10A (Q9Y233 whole entry, looked up): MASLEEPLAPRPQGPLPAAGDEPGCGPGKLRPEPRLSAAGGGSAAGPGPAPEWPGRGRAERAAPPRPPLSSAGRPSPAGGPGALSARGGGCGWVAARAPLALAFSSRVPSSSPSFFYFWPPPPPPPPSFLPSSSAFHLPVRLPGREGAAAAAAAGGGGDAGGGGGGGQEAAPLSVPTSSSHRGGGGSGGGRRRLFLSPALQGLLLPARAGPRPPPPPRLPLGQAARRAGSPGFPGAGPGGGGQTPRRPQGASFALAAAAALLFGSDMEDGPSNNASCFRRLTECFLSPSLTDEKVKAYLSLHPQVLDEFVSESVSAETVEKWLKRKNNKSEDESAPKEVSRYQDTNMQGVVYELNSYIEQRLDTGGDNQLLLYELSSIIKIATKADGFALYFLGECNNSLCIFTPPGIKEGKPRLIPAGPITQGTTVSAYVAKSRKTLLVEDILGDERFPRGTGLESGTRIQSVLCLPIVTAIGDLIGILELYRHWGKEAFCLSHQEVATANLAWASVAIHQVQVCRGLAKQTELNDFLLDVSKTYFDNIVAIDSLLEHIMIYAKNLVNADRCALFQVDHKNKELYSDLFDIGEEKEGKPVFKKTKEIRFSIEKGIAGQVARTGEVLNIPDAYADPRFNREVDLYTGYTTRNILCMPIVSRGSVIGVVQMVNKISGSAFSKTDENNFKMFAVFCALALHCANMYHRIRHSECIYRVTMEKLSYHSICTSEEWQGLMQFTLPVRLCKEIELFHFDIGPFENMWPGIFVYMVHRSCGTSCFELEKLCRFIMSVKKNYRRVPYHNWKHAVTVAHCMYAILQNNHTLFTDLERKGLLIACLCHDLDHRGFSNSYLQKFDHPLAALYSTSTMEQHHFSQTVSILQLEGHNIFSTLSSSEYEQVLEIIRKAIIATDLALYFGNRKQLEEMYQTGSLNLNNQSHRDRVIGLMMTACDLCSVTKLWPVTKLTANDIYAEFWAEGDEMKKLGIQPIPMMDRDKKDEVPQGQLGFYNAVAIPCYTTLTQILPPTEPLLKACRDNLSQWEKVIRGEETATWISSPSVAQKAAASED
row,Structure (SMILES),pIC50
1,"COc1cc2cncc(Cc3cnc4ccccc4c3)c2cc1O [Compound 29, 7-methoxy-4-(quinolin-3-ylmethyl)isoquinolin-6-ol dihydrochloride]",< 5.00
2,"COc1cc2c(Cc3cnc4ccccc4c3)cncc2cc1O [Compound 30, 6-methoxy-4-(quinolin-3-ylmethyl)isoquinolin-7-ol dihydrochloride]",< 5.00
3,"COc1cc2c(Cc3cnc4ccccc4c3)cnc(C3CCCCC3)c2cc1OC [Compound 71, 3-((1-cyclohexyl-6,7-dimethoxyisoquinolin-4-yl)methyl)quinoline dihydrochloride]",< 5.00

# Target: PDE4D3 (Homo sapiens (Human), UniProt Q08499)
# Test: Diaxonhit phosphodiesterase assay (TR-FRET, LANCE cAMP kit), PDE4D3
# Format: biochemical
# Excerpt: as §1
# The PDE assay is based on the homogenous time-resolved fluorescence resonance energy transfer (TR-FRET) technology (LANCE® from Perkin Elmer). This competition based assay is formatted using a cAMP specific antibody labeled with the dye, Alexa Fluor® 647, biotin-cAMP and streptavidin labeled with Europium (Eu-SA). As the complex of Eu-SA/biotin-cAMP/Alexa Fluor 647 labeled antibody is formed, an increase in signal is generated. When there is PDE activity, resulting in the degradation of the cyclic nucleotide, the complex is not formed and a decrease in signal is observed.
# The phosphodiesterase assay was developed using the LANCE® cAMP kit (PerkinElmer). The assay buffer contained HBSS with 5 mM HEPES, 0.1% BSA, and 1.5 mM MgCl2, pH 7.4. PDE10A (BPS Bioscience) was used at 200 pg/well (with a specific activity of 3200 pmole/min/μg with assay conditions: 10 mM Tris-HCl, pH 7.4, 10 mM MgCl2, 1 mM MnCl2, 200 μM cAMP, 2.5 kU 5′ nucleotidase, 37° C., 20 min) and PDE4D3 (BPS Bioscience) was used at 100 pg/well (with a specific activity of 32713 pmole/min/μg with assay conditions: 10 mM Tris-HCl, pH 7.4, 10 mM MgCl2, 1 mM MnCl2, 200 μM cAMP, 2.5 kU 5′ nucleotidase, 37° C., 20 min). The Biotin-cAMP tracer, supplied in 10 mmol/L Tris-HCl buffered (pH 8.0) salt solution with 1 mmol/L ethylenediaminetetraacetic acid (EDTA), 0.1% bovine serum albumin (BSA), and 0.05% sodium azide, is used at a dilution of 1/375. The assay detection mixture contained the LANCE Eu-W8044 labeled streptavidin 1/2250 (supplied in 50 mmol/L Tris-HCl buffered (pH 7.8) salt solution with 0.9% sodium chloride (NaCl), 0.1% BSA, and 0.05% sodium azide) and the Alexa Fluor® 647-anti cAMP antibody 1/200 (supplied in 50 mmol/L Tris-HCl buffered (pH 7.8) salt solution with 0.9% NaCl, 0.1% BSA, and 0.05% sodium azide). Chemical compounds were dissolved in DMSO (final concentration 2% (v/v)).
# as §2
# Sequence of PDE4D3 (Q08499 other isoform, or with tags, fused parts or gaps): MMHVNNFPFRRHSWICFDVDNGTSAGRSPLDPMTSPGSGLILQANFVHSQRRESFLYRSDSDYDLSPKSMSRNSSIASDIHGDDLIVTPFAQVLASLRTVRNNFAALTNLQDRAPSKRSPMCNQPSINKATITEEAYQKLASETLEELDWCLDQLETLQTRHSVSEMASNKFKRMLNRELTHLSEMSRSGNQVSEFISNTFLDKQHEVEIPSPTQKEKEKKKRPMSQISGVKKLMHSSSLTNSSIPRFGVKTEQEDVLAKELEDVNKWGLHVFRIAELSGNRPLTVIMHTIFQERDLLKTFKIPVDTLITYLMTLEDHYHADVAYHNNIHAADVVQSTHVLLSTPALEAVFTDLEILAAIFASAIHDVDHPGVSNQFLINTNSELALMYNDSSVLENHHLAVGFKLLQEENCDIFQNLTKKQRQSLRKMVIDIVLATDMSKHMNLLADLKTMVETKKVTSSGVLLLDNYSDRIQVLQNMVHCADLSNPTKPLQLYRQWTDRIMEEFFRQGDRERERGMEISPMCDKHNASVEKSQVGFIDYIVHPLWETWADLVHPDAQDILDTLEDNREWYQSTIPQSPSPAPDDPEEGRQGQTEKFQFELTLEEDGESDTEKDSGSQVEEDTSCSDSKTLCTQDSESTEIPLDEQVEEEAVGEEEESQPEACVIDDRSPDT
row,Structure (SMILES),pIC50
1,"CCc1ncc(Cc2ccc3cccc(O)c3n2)c2cc(OC)c(OC)cc12 [Compound 83, 2-((1-ethyl-6,7-dimethoxyisoquinolin-4-yl)methyl)quinolin-8-ol]",6.36
2,"CCc1ncc(Cc2ccc3cccc(NC(=O)C(N)=O)c3n2)c2cc(OC)c(OC)cc12 [Compound 93, N^1-(2-((1-ethyl-6,7-dimethoxyisoquinolin-4-yl)methyl)quinolin-8-yl)oxalamide]",6.40

# Continued, values first:
row,pIC50,Structure (SMILES)
1,6.63,"CCCc1ncc(Cc2cnc3ccc(O)c(C(F)(F)F)c3c2)c2cc(OC)c(OC)cc12 [Compound 162, 3-((6,7-dimethoxy-1-propylisoquinolin-4-yl)methyl)-5-(trifluoromethyl)quinolin-6-ol]"
2,6.71,"COCc1ncc(Cc2cnc3ccc(O)c(C(F)(F)F)c3c2)c2cc(OC)c(OC)cc12 [Compound 169, 3-((6,7-dimethoxy-1-(methoxymethyl)isoquinolin-4-yl)methyl)-5-(trifluoromethyl)quinolin-6-ol]"
